# Results as given in ChEMBL document CHEMBL5120917, “Ferroptosis Inhibitory Aromatic Abietane Diterpenoids from Ajuga decumbens and Structural Revision of Two 3,4-Epoxy Group-Containing Abietanes” (J Nat Prod, 2022).
# Active and inactive are the calls of the source. The calls are words filed in the database; no cut-off is given here.
# Key:
# [1] = Cytotoxicity against […] HT-22 cells assessed as reduction in cell viability measured after 24 hrs by MTT assay; assay type: toxicity, cell-based; conditions: mouse
# HT-22 [2] = assay: Anti-ferroptotic activity against RSL3-induced ferroptosis in […] HT-22 cells assessed as cell viability measured after 24 hrs by MTT assay; assay type: functional, cell-based; conditions: Mus musculus, HT-22, 24 h
# [3] = Antioxidant activity assessed as DPPH radical scavenging activity at 100 uM measured for 30 mins by microplate spectrophotometric analysis; assay type: functional
# HT-22 [4] = assay: Anti-ferroptotic activity against RSL3-induced ferroptosis in […] HT-22 cells assessed as cell viability at 1 uM measured after 24 hrs by MTT assay; assay type: functional; conditions: read-out: Activity
# [5] = Metal chelating activity assessed as Fe2+-compound complex formation by UV-visible spectrophotometry
# HT-22 [6] = assay: Reduction in cytosolic ROS accumulation in RSL-3 treated […] HT-22 cells assessed as fluorescence intensity incubated for 4 hrs by carboxy-H2DCFDA staining based flow cytometry analysis; assay type: functional, cell-based; conditions: Mus musculus, dose 25-100 nM
# HT-22 [7] = assay: Reversal of RSL-3 induced PTGS2 mRNA expression in […] HT-22 cells incubated for 4 hrs by […] analysis; assay type: functional, cell-based; conditions: Mus musculus, dose 25-100 nM
# HT-22 [8] = assay: Reduction in lipid ROS accumulation in RSL-3 treated […] HT-22 cells assessed as fluorescence intensity incubated for 4 hrs by C11-BODIPY staining based flow cytometry analysis; assay type: functional, cell-based; conditions: Mus musculus, dose 25-100 nM
smiles,measurement,setting,value
CC1=C(C)C2=CC(=O)c3c(c(O)c4oc(C)cc4c3O)[C@@]2(C)CC1,CC50 at 24 h,[1],> 40000 nM
same,EC50,HT-22 [2],526 nM
same,Activity,[3],Active
C=CCc1c(O)c2c(c(O)c1OC)[C@@]1(C)CCC(C)=C(C)C1=CC2=O,CC50 at 24 h,[1],> 40000 nM
same,EC50,HT-22 [2],308 nM
same,Activity,[3],Active
C[C@@H]1COc2c(O)c3c(c(O)c21)C(=O)CC1C(C)(C)CCC[C@]31C (some centres not stated),CC50 at 24 h,[1],> 40000 nM
same,viability at 1 µM,HT-22 [4],< 50%
CC(=O)N(O)CCCCCNC(=O)CCC(=O)N(O)CCCCCNC(=O)CCC(=O)N(O)CCCCCN,Activity,[5],Active
CC1=C(C)C2=CC(=O)[C@@]34O[C@@]3(C(=O)c3oc(C)cc3C4=O)[C@@]2(C)CC1,CC50 at 24 h,[1],> 40000 nM
same,viability at 1 µM,HT-22 [4],< 50%
CC1=C(C)C2=CC(=O)c3c(O)c4c(c(O)c3[C@@]2(C)CC1=O)OC[C@H]4C,CC50 at 24 h,[1],> 40000 nM
same,Activity,[3],Active
same,viability at 1 µM,HT-22 [4],< 50%
Cc1coc2c(O)c3c(c(O)c12)C(=O)C=C1[C@]3(C)CC[C@]2(C)O[C@]12C,CC50 at 24 h,[1],> 40000 nM
same,EC50,HT-22 [2],348 nM
same,Activity,[3],Active
CC1=C(C)C2=CC(=O)c3c(c(O)c4occ(C)c4c3O)[C@@]2(C)CC1,Activity,HT-22 [6],Active
same,Activity,HT-22 [7],Active
same,CC50 at 24 h,[1],> 40000 nM
same,EC50,HT-22 [2],56.1 nM
same,Activity,[3],Active
same,Activity,HT-22 [8],Active
CC1=C(C)C2=CC(=O)c3c(O)c4c(c(O)c3[C@@]2(C)CC1)OC[C@H]4C,CC50 at 24 h,[1],> 40000 nM
same,EC50,HT-22 [2],76.2 nM
same,Activity,[3],Active
C[C@@H]1COc2c(O)c3c(c(O)c21)C(=O)C=C1[C@]3(C)CC[C@]2(C)O[C@]12C,CC50 at 24 h,[1],> 40000 nM
same,EC50,HT-22 [2],406 nM
same,Activity,[3],Active
CCOC(=O)c1ccc(NC2CCCCC2)c(N)c1,EC50,HT-22 [2],81.2 nM
CC1=C(C)C2=CC(=O)[C@@]34O[C@@]3(C(=O)c3occ(C)c3C4=O)[C@@]2(C)CC1,CC50 at 24 h,[1],> 40000 nM
same,viability at 1 µM,HT-22 [4],< 50%
